{
  "source": "patent US20240391926A1",
  "about": "“SPIROINDOLINONE COMPOUNDS AS Kv1.3 POTASSIUM SHAKER CHANNEL BLOCKERS” (D.E. Shaw Research, LLC, priority 2021, published 2024)",
  "data": [
    {"molecular_target": "T1, Kv1.3 potassium channel (Homo sapiens, UniProt P22001)", "T1 construct": "expressed in transfected cells", "T1 sequence (P22001 whole entry)": "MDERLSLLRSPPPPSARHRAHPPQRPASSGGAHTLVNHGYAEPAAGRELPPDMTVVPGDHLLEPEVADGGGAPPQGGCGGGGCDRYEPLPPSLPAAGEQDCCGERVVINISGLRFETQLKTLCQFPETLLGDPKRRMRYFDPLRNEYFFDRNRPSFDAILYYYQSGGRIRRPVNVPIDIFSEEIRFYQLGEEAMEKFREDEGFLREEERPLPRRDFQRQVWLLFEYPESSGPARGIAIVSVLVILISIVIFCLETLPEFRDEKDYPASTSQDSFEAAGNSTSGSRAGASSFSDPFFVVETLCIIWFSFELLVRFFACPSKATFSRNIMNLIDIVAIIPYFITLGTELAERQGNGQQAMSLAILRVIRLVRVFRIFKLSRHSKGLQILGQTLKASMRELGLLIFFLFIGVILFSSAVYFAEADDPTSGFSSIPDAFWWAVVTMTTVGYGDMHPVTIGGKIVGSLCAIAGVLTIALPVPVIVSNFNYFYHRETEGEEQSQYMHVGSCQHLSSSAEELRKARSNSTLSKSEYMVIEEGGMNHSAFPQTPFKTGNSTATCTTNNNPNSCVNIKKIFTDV", "assay": "Kv1.3 potassium channel blocker activity, automated whole-cell patch clamp (Patchliner) in CHO-K1 cells stably expressing Kv1.3", "format": "cell-based", "settings": "30 nM-100 μM", "protocol": "This assay is used to evaluate the disclosed compounds' activities as Kv1.3 potassium channel blockers.\nCHO-K1 cells stably expressing Kv1.3 were grown in DMEM containing 10% heat-inactivated FBS, 1 mM sodium pyruvate, 2 mM L-glutamine, and G418 (500 μg/ml). Cells were grown in culture flasks at 37° C. in a 5% CO2-humidified incubator.\nThe cells were bathed in an extracellular solution containing 140 mM NaCl, 4 mM KCl, 2 mM CaCl2), 1 mM MgCl2, 5 mM glucose, 10 mM HEPES; pH adjusted to 7.4 with NaOH; 295-305 mOsm. The internal solution contained 50 mM KCl, 10 mM NaCl, 60 mM KF, 20 mM EGTA, 10 mM HEPES; pH adjusted to 7.2 with KOH; 285 mOsm. All compounds were dissolved in DMSO at 30 mM. Compound stock solutions were freshly diluted with external solution to concentrations of 30 nM, 100 nM, 300 nM, 1 μM, 3 μM, 10 μM, 30 μM and 100 μM. The highest content of DMSO (0.3%) was present in 100 μM.\nThe currents were evoked by applying 100 ms depolarizing pulses from −90 mV (holding potential) to +40 mV were applied with 0.1 Hz frequency. Control (compound-free) and compound pulse trains for each compound concentration applied contained 20 pulses. 10-second breaks were used between pulse trains (see Table A below).\nWhole-cell current recordings and compound application were enabled by means of an automated patch clamp platform Patchliner (Nanion Technologies GmbH). EPC 10 patch clamp amplifier (HEKA Elektronik Dr. Schulze GmbH) along with Patchmaster software (HEKA Elektronik Dr. Schulze GmbH) was used for data acquisition. Data were sampled at 10 kHz without filtering. Passive leak currents were subtracted online using a P/4 procedure (HEKA Elektronik Dr. Schulze GmbH). Increasing compound concentrations were applied consecutively to the same cell without washouts in between. Total compound incubation time before the next pulse train was not longer than 10 seconds. Peak current inhibition was observed during compound equilibration.\nAUC and peak values were obtained with Patchmaster (HEKA Elektronik Dr. Schulze GmbH). To determine IC50, the last single pulse in the pulse train corresponding to a given compound concentration was used. Obtained AUC and peak values in the presence of compound were normalized to control values in the absence of compound. Using Origin (OridinLab), IC50 was derived from data fit to Hill equation: Icompound/Icontrol=(100−A)/(1+([compound]/IC50)nH)+A, where IC50 value is the concentration at which current inhibition is half-maximal, [compound] is the applied compound concentration, A is the fraction of current that is not blocked and nH is the Hill coefficient.", "units": {"IC50": "µM"}, "values": [
      {"smiles": "O=C([C@H]1CNCCO1)N1CC[C@]2(C1)C(=O)Nc1cc(Cl)c(Cl)cc12", "note": "[Compound 10, (S)-5,6-dichloro-1′-((R)-morpholine-2-carbonyl)spiro[indoline-3,3′-pyrrolidin]-2-one]", "IC50": "< 1"},
      {"smiles": "O=C([C@@H]1CNCCO1)N1CC[C@]2(C1)C(=O)Nc1cc(Cl)c(Cl)cc12", "note": "[Compound 11, (S)-5,6-dichloro-1′-((S)-morpholine-2-carbonyl)spiro[indoline-3,3′-pyrrolidin]-2-one]", "IC50": "< 3"},
      {"smiles": "C[C@H](O)C(=O)N1CC[C@]2(C1)C(=O)Nc1cc(Cl)c(Cl)cc12", "note": "[Compound 12, (S)-5,6-dichloro-1′-((S)-2-hydroxypropanoyl)spiro[indoline-3,3′-pyrrolidin]-2-one]", "IC50": "< 3"},
      {"smiles": "O=C([C@H]1CCCNC1)N1CC[C@]2(C1)C(=O)Nc1cc(Cl)c(Cl)cc12", "note": "[Compound 16, (S)-5,6-dichloro-1′-((S)-piperidine-3-carbonyl)spiro[indoline-3,3′-pyrrolidin]-2-one]", "IC50": "< 1"},
      {"smiles": "CNCC(=O)N1CC[C@]2(C1)C(=O)Nc1cc(Cl)c(Cl)cc12", "note": "[Compound 18, (S)-5,6-dichloro-1′-(methylglycyl)spiro[indoline-3,3′-pyrrolidin]-2-one]", "IC50": "< 3"},
      {"smiles": "O=C(C(CO)CO)N1CC[C@]2(C1)C(=O)Nc1cc(Cl)c(Cl)cc12", "note": "[Compound 19, (S)-5,6-dichloro-1′-(3-hydroxy-2-(hydroxymethyl)propanoyl)spiro[indoline-3,3′-pyrrolidin]-2-one]", "IC50": "< 3"},
      {"smiles": "O=C([C@H]1CCCO1)N1CC[C@]2(C1)C(=O)Nc1cc(Cl)c(Cl)cc12", "note": "[Compound 20, (S)-5,6-dichloro-1′-((R)-tetrahydrofuran-2-carbonyl)spiro[indoline-3,3′-pyrrolidin]-2-one]", "IC50": "< 10"},
      {"smiles": "O=C([C@@H]1CCCN1)N1CC[C@]2(C1)C(=O)Nc1cc(Cl)c(Cl)cc12", "note": "[Compound 22, (S)-1′-(L-prolyl)-5,6-dichlorospiro[indoline-3,3′-pyrrolidin]-2-one]", "IC50": "< 1"},
      {"smiles": "O=C([C@H]1CCCN1)N1CC[C@]2(C1)C(=O)Nc1cc(Cl)c(Cl)cc12", "note": "[Compound 23, (S)-1′-(D-prolyl)-5,6-dichlorospiro[indoline-3,3′-pyrrolidin]-2-one]", "IC50": "< 3"},
      {"smiles": "O=C([C@@H]1CCOC1)N1CC[C@]2(C1)C(=O)Nc1cc(Cl)c(Cl)cc12", "note": "[Compound 24, (S)-5,6-dichloro-1′-((R)-tetrahydrofuran-3-carbonyl)Spiro[indoline-3,3′-pyrrolidin]-2-one]", "IC50": "< 3"},
      {"smiles": "O=C1Nc2cc(Cl)c(Cl)cc2[C@]12CCN(C(=O)[C@H]1C[C@@H](O)C1)C2", "note": "[Compound 25, (S)-5,6-dichloro-1′-((1s,3R)-3-hydroxycyclobutane-1-carbonyl)spiro[indoline-3,3′-pyrrolidin]-2-one]", "IC50": "< 3"},
      {"smiles": "O=C(CC1CNC1)N1CC[C@]2(C1)C(=O)Nc1cc(Cl)c(Cl)cc12", "note": "[Compound 26, (S)-1′-(2-(azetidin-3-yl)acetyl)-5,6-dichlorospiro[indoline-3,3′-pyrrolidin]-2-one]", "IC50": "< 1"},
      {"smiles": "O=C1Nc2cc(Cl)c(Cl)cc2[C@]12CCN(C(=O)[C@H]1C[C@H](O)C1)C2", "note": "[Compound 27, (S)-5,6-dichloro-1′-((1r,3S)-3-hydroxycyclobutane-1-carbonyl)spiro[indoline-3,3′-pyrrolidin]-2-one]", "IC50": "< 3"},
      {"smiles": "O=C(N1CC[C@]2(C1)C(=O)Nc1cc(Cl)c(Cl)cc12)C1(F)CCNCC1", "note": "[Compound 34, (S)-5,6-dichloro-1′-(4-fluoropiperidine-4-carbonyl)spiro[indoline-3,3′-pyrrolidin]-2-one]", "IC50": "< 1"},
      {"smiles": "N[C@@H](CO)C(=O)N1CC[C@]2(C1)C(=O)Nc1cc(Cl)c(Cl)cc12", "note": "[Compound 36, (S)-1′-(L-Seryl)-5,6-dichlorospiro[indoline-3,3′-pyrrolidin]-2-one]", "IC50": "< 1"},
      {"smiles": "Cn1nc(C(=O)N2CC[C@]3(C2)C(=O)Nc2cc(Cl)c(Cl)cc23)cc1N", "note": "[Compound 41, (S)-1′-(5-amino-1-methyl-1H-pyrazole-3-carbonyl)-5,6-dichlorospiro[indoline-3,3′-pyrrolidin]-2-one]", "IC50": "< 10"},
      {"smiles": "N[C@H](CO)C(=O)N1CC[C@]2(C1)C(=O)Nc1cc(Cl)c(Cl)cc12", "note": "[Compound 43, (S)-1′-(D-seryl)-5,6-dichlorospiro[indoline-3,3′-pyrrolidin]-2-one]", "IC50": "< 1"},
      {"smiles": "CC(C)C[C@@H](N)C(=O)N1CC[C@]2(C1)C(=O)Nc1cc(Cl)c(Cl)cc12", "note": "[Compound 44, (S)-1′-(D-leucyl)-5,6-dichlorospiro[indoline-3,3′-pyrrolidin]-2-one]", "IC50": "< 3"},
      {"smiles": "CC(C)C[C@H](N)C(=O)N1CC[C@]2(C1)C(=O)Nc1cc(Cl)c(Cl)cc12", "note": "[Compound 45, (S)-1′-(L-leucyl)-5,6-dichlorospiro[indoline-3,3′-pyrrolidin]-2-one]", "IC50": "< 3"},
      {"smiles": "CC(C)[C@@H](N)C(=O)N1CC[C@]2(C1)C(=O)Nc1cc(Cl)c(Cl)cc12", "note": "[Compound 46, (S)-1′-(D-valyl)-5,6-dichlorospiro[indoline-3,3′-pyrrolidin]-2-one]", "IC50": "< 3"},
      {"smiles": "CC(C)[C@H](N)C(=O)N1CC[C@]2(C1)C(=O)Nc1cc(Cl)c(Cl)cc12", "note": "[Compound 47, (S)-1′-(L-valyl)-5,6-dichlorospiro[indoline-3,3′-pyrrolidin]-2-one]", "IC50": "< 3"},
      {"smiles": "O=C(N1CC[C@]2(C1)C(=O)Nc1cc(Cl)c(Cl)cc12)[C@@]1(F)CCCNC1", "note": "[Compound 48, (S)-5,6-dichloro-1′-((R)-3-fluoropiperidine-3-carbonyl)spiro[indoline-3,3′-pyrrolidin]-2-one]", "IC50": "< 1"},
      {"smiles": "O=C(C1CNCC(F)(F)C1)N1CC[C@]2(C1)C(=O)Nc1cc(Cl)c(Cl)cc12", "note": "(stereo partly drawn) [Compound 50, (3S)-5,6-dichloro-1′-(5,5-difluoropiperidine-3-carbonyl)spiro[indoline-3,3′-pyrrolidin]-2-one]", "IC50": "< 1"},
      {"smiles": "O=C1Nc2cc(Cl)c(Cl)cc2[C@]12CCN(C(=O)[C@H]1CC[C@@H](O)CC1)C2", "note": "[Compound 51, (S)-5,6-dichloro-1′-((1s,4R)-4-hydroxycyclohexane-1-carbonyl)spiro[indoline-3,3′-pyrrolidin]-2-one]", "IC50": "< 3"},
      {"smiles": "NC[C@H](O)C(=O)N1CC[C@]2(C1)C(=O)Nc1cc(Cl)c(Cl)cc12", "note": "[Compound 54, (S)-1′-((S)-3-amino-2-hydroxypropanoyl)-5,6-dichlorospiro[indoline-3,3′-pyrrolidin]-2-one]", "IC50": "< 3"},
      {"smiles": "NC[C@@H](O)C(=O)N1CC[C@]2(C1)C(=O)Nc1cc(Cl)c(Cl)cc12", "note": "[Compound 55, (S)-1′-((R)-3-amino-2-hydroxypropanoyl)-5,6-dichlorospiro[indoline-3,3′-pyrrolidin]-2-one]", "IC50": "< 1"},
      {"smiles": "O=C(C[C@H]1CCCN1)N1CC[C@]2(C1)C(=O)Nc1cc(Cl)c(Cl)cc12", "note": "[Compound 59, (S)-5,6-dichloro-1′-(2-((R)-pyrrolidin-2-yl)acetyl)spiro[indoline-3,3′-pyrrolidin]-2-one]", "IC50": "< 3"},
      {"smiles": "O=C(C[C@@H]1CCCN1)N1CC[C@]2(C1)C(=O)Nc1cc(Cl)c(Cl)cc12", "note": "[Compound 61, (S)-5,6-dichloro-1′-(2-((S)-pyrrolidin-2-yl)acetyl)spiro[indoline-3,3′-pyrrolidin]-2-one]", "IC50": "< 1"},
      {"smiles": "O=C(c1ccc(CO)nc1)N1CC[C@]2(C1)C(=O)Nc1cc(Cl)c(Cl)cc12", "note": "[Compound 68, (S)-5,6-dichloro-1′-(6-(hydroxymethyl)nicotinoyl)spiro[indoline-3,3′-pyrrolidin]-2-one]", "IC50": "< 3"},
      {"smiles": "Cn1cc(C(=O)N2CC[C@]3(C2)C(=O)Nc2cc(Cl)c(Cl)cc23)cn1", "note": "[Compound 69, (S)-5,6-dichloro-1′-(1-methyl-1H-pyrazole-4-carbonyl)spiro[indoline-3,3′-pyrrolidin]-2-one]", "IC50": "< 10"},
      {"smiles": "Nc1[nH]ncc1C(=O)N1CC[C@]2(C1)C(=O)Nc1cc(Cl)c(Cl)cc12", "note": "[Compound 70, (S)-1′-(5-amino-1H-pyrazole-4-carbonyl)-5,6-dichlorospiro[indoline-3,3′-pyrrolidin]-2-one]", "IC50": "< 3"},
      {"smiles": "O=C(Cc1cn[nH]c1)N1CC[C@]2(C1)C(=O)Nc1cc(Cl)c(Cl)cc12", "note": "[Compound 72, (S)-1′-(2-(1H-pyrazol-4-yl)acetyl)-5,6-dichlorospiro[indoline-3,3′-pyrrolidin]-2-one]", "IC50": "< 3"},
      {"smiles": "O=C(Cc1cc[nH]n1)N1CC[C@]2(C1)C(=O)Nc1cc(Cl)c(Cl)cc12", "note": "[Compound 73, (S)-1′-(2-(1H-pyrazol-3-yl)acetyl)-5,6-dichlorospiro[indoline-3,3′-pyrrolidin]-2-one]", "IC50": "< 3"}
    ]}
  ]
}
